These results are taken from patent US9365556B2, “3,5-diaminopyrazole kinase inhibitors” (Axikin Pharmaceuticals, Inc., priority 2012, dated 2016).

The target of the first assay is T1, kinase domain protein of RC kinase (Homo sapiens, UniProt Q56UN5).
T1 sequence (Q56UN5 1061-1324 limits assumed): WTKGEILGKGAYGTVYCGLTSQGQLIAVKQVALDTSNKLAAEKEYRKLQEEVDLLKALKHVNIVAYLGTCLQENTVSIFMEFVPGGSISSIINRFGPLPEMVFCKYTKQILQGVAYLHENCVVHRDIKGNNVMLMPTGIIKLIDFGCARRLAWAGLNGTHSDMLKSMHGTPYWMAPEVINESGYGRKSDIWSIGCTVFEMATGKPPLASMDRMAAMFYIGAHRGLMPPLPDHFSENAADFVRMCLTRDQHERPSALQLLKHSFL
The assay can be described thus: Enzymatic assay for kinase inhibitory activity (Crebtide substrate, LANCE read-out). It is filed as biochemical. As to conditions: compound at 1 μM. On the procedure:
Solutions of a test compound, Crebtide (a substrate), a kinase, and ATP were prepared using 1×MAPK Buffer (50 mM HEPES, 1 mM EGTA, […], 10 mM MgCl2, 2 mM DTT, and 0.01% Tween 20).
To each well, the test compound (1 μL) was first added (in duplicate) to reach a final concentration of 1 μM or 1×IC50 of the compound. The kinase (5 μl) was then added to each well to reach a final concentration of […] for the kinase domain or […] for the full-length domain. Each plate included a positive and negative controls in duplicate wells. Crebtide (2.5 μL) was then added to each well in duplicate to reach a final concentration of 50 nM. If the full-length kinase was used, the plates were incubated for 45 min at room temperature before proceeding further. ATP (2.5 μL) was added to each well to reach a final concentration of 1 μM for the kinase domain and 3 μM for the full-length.
After the addition of ATP, the plates were incubated for 45 min at room temperature. During the incubation, an EDTA solution (40 mM) and anti-Crebtide ([…]) were prepared. Additionally, a detection buffer stock solution was diluted ten fold before use.
After the incubation, the anti-Crebtide (5 μL) and EDTA (5 μL) were added to each well to reach their final concentrations of […] and 10 mM, respectively. The plates were allowed to develop at room temperature for 45 min. The plates were then read at 665 nm and 615 nm using Perkin Elmer Lance machine.
The biological results of inhibition of the kinase domain protein of RC kinase are summarized in Tables 2 and 3, wherein A represents at least 50% inhibition of the RC kinase activity at 1 μM; B represents no greater than 50% but at least 20% inhibition of the RC kinase activity at 1 μM; C represents no greater than 20% but at least 5% inhibition of the RC kinase activity at 1 μM; and D represents no greater than 5% inhibition of the RC kinase activity at 1 μM.
Background: TR-FRET usually uses a lanthanide donor and a delayed reading to cut background.
`NC(=O)c1c(Nc2cccc(Cl)c2)n[nH]c1/N=C/c1ccc(F)cc1O` [Compound B83]: the inhibition at 1 µM is 5 to 20%.
As to `COc1ccc(/C=N/c2[nH]nc(Nc3cccc(Cl)c3)c2C(N)=O)c(C)c1C` [Compound B57], the “Activity (inhibition of the RC kinase activity)” value is reported as “B (no greater than 50% but at least 20% inhibition of the RC kinase activity at 1 μM)”.
Regarding `NC(=O)c1c(Nc2cccc(Cl)c2)n[nH]c1/N=C/c1ccc(OC(F)F)c(O)c1` [Compound B68], the inhibition at 1 µM is ≥ 50%.
`NC(=O)c1c(Nc2cccc(Cl)c2)n[nH]c1/N=C/c1cnccn1` [Compound B80]: the inhibition at 1 µM is ≤ 5%.
With `Cc1ncsc1/C=N/c1[nH]nc(Nc2cccc(Cl)c2)c1C(N)=O` [Compound B62, 3-((3-chlorophenyl)amino)-5-(((4-methylthiazol-5-yl)methylene)amino)-1H-pyrazole-4-carboxamide], the inhibition at 1 µM was ≥ 50%.
`Cc1[nH]c2ccccc2c1/C=N/c1[nH]nc(Nc2cccc(Cl)c2)c1C(N)=O` [Compound B69]: the “Activity (inhibition of the RC kinase activity)” value is listed as “B (no greater than 50% but at least 20% inhibition of the RC kinase activity at 1 μM)”.
On the same count and under the same terms, in the case of `N#Cc1c(Nc2cccc(Cl)c2)n[nH]c1/N=C/c1c(O)cccc1Cl` [Compound A92] it was “D (no greater than 5% inhibition of the RC kinase activity at 1 μM)”.
Turning to `Cc1cc(/C=N/c2[nH]nc(Nc3cccc(Cl)c3)c2C(N)=O)cc(C)c1O` [Compound B61, 3-((3-chlorophenyl)amino)-5-((4-hydroxy-3,5-dimethylbenzylidene)amino)-1H-pyrazole-4-carboxamide], the inhibition at 1 µM was ≥ 50%.
As for `NC(=O)c1c(Nc2ccccc2Cl)n[nH]c1/N=C/c1cc(O)ccc1[N+](=O)[O-]` [Compound B116], the “Activity (inhibition of the RC kinase activity)” value is on record as “C (no greater than 20% but at least 5% inhibition of the RC kinase activity at 1 μM)”.
Turning to `COc1cc(O)cc(OC)c1/C=N/c1[nH]nc(Nc2cccc(Cl)c2)c1C(N)=O` [Compound B108], the “Activity (inhibition of the RC kinase activity)” value is given as “B (no greater than 50% but at least 20% inhibition of the RC kinase activity at 1 μM)”.
On to `NC(=O)c1c(Nc2cccc(Cl)c2)n[nH]c1/N=C/c1cc([N+](=O)[O-])ccc1O` [Compound B51], for which the “Activity (inhibition of the RC kinase activity)” value was “C (no greater than 20% but at least 5% inhibition of the RC kinase activity at 1 μM)”.
In the case of `NC(=O)c1c(Nc2cccc(Cl)c2)n[nH]c1/N=C/c1cc(O)ccc1O` [Compound B38, 3-((3-chlorophenyl)amino)-5-((2,5-dihydroxybenzylidene)amino)-1H-pyrazole-4-carboxamide], the inhibition at 1 µM is ≥ 50%.
For the molecule `NC(=O)c1c(Nc2cccc(Cl)c2)n[nH]c1/N=C/c1ccc(Cl)cc1Cl` [Compound B93], the “Activity (inhibition of the RC kinase activity)” value is recorded as “D (no greater than 5% inhibition of the RC kinase activity at 1 μM)”.
`Cn1nc(C(F)(F)F)c(/C=N/c2[nH]nc(Nc3cccc(Cl)c3)c2C#N)c1Cl` [Compound A69]: the “Activity (inhibition of the RC kinase activity)” value is given as “C (no greater than 20% but at least 5% inhibition of the RC kinase activity at 1 μM)”.
Turning to `N#Cc1c(Nc2cccc(Cl)c2)n[nH]c1/N=C/c1ccc[nH]1` [Compound A27], the “Activity (inhibition of the RC kinase activity)” value is “C (no greater than 20% but at least 5% inhibition of the RC kinase activity at 1 μM)”.
On the same count and under the same terms, in the case of `NC(=O)c1c(Nc2cccc(Cl)c2)n[nH]c1/N=C/c1ccc(-c2ccc(Cl)cc2)o1` [Compound B73] it was “B (no greater than 50% but at least 20% inhibition of the RC kinase activity at 1 μM)”.
For the molecule `NC(=O)c1c(Nc2cccc(Cl)c2)n[nH]c1/N=C/c1ncc(Cl)nc1Cl` [Compound B78], the inhibition at 1 µM is ≤ 5%.
As for `Cn1c(Cl)c(/C=N/c2[nH]nc(Nc3cccc(Cl)c3)c2C(N)=O)c2ccccc21` [Compound B91], the “Activity (inhibition of the RC kinase activity)” value was “D (no greater than 5% inhibition of the RC kinase activity at 1 μM)”.
For the molecule `NC(=O)c1c(Nc2ccc(Cl)cc2)n[nH]c1/N=C/c1ccccc1OCC(=O)O` [Compound B37], the inhibition at 1 µM was ≤ 5%.
With `COc1cccc(/C=N/c2[nH]nc(Nc3cccc(Cl)c3)c2C#N)c1` [Compound A24], the “Activity (inhibition of the RC kinase activity)” value was “D (no greater than 5% inhibition of the RC kinase activity at 1 μM)”.
For the molecule `Cc1ncsc1/C=N/c1[nH]nc(Nc2cccc(Cl)c2)c1C#N` [Compound A104], the “Activity (inhibition of the RC kinase activity)” value was “D (no greater than 5% inhibition of the RC kinase activity at 1 μM)”.
`Cc1cc(C)cc(Nc2n[nH]c(/N=C/c3ccc(O)cc3)c2C#N)c1` [Compound A55]: the inhibition at 1 µM was 5 to 20%.
With `COc1ccc(/C=N/c2[nH]nc(NC3CCCCC3)c2C#N)cc1` [Compound A50], the “Activity (inhibition of the RC kinase activity)” value is on record as “D (no greater than 5% inhibition of the RC kinase activity at 1 μM)”.
As for `N#Cc1c(Nc2ccccc2)n[nH]c1/N=C/c1ccc(C(F)(F)F)cc1` [Compound A18], the “Activity (inhibition of the RC kinase activity)” value is reported as “C (no greater than 20% but at least 5% inhibition of the RC kinase activity at 1 μM)”.
Still for that read-out and setting: in the case of `NC(=O)c1c(Nc2ccccc2)n[nH]c1/N=C/c1ccccc1` [Compound B11] it was “A (at least 50% inhibition of the RC kinase activity at 1 μM)”.
With `NC(=O)c1c(Nc2cccc(Cl)c2)n[nH]c1/N=C/c1ncccc1F` [Compound B88], the inhibition at 1 µM is ≤ 5%.
Take `COc1cccc(O)c1/C=N/c1[nH]nc(Nc2cccc(Cl)c2)c1C(N)=O` [Compound B48]: the “Activity (inhibition of the RC kinase activity)” value is recorded as “C (no greater than 20% but at least 5% inhibition of the RC kinase activity at 1 μM)”.
In the case of `CS(=O)(=O)c1ccc(/C=N/c2[nH]nc(Nc3cccc(Cl)c3)c2C(N)=O)cc1` [Compound B92, 3-((3-chlorophenyl)amino)-5-((4-(methylsulfonyl)benzylidene)amino)-1H-pyrazole-4-carboxamide], the inhibition at 1 µM is ≤ 5%.
`NC(=O)c1c(Nc2cccc(Cl)c2)n[nH]c1/N=C/c1cc(F)c(O)c(F)c1` [Compound B86, 3-((3-chlorophenyl)amino)-5-((3,5-difluoro-4-hydroxybenzylidene)amino)-1H-pyrazole-4-carboxamide]: the inhibition at 1 µM was ≥ 50%.
Regarding `NC(=O)c1c(Nc2cccc(Cl)c2)n[nH]c1/N=C/c1ccc([N+](=O)[O-])c(O)c1` [Compound B45], the inhibition at 1 µM lay in the range of 20 to 50%.
Take `CC(C)(C)c1ccc(Nc2[nH]nc(N=Cc3ccc(O)cc3)c2C#N)cc1` [Compound A57, 5-((4-(tert-butyl)phenyl)amino)-3-((4-hydroxybenzylidene)amino)-1H-pyrazole-4-carbonitrile]: the inhibition at 1 µM lay in the range of 5 to 20%.
On the same count and under the same terms, in the case of `Cc1ccc(/C=N/c2[nH]nc(Nc3cccc(Cl)c3)c2C(N)=O)c(O)c1` [Compound B106] it was ≤ 5%.
Regarding `NC(=O)c1c(Nc2cccc(Cl)c2)n[nH]c1/N=C/c1ccc(N2CCOCC2)nc1` [Compound B101], the inhibition at 1 µM fell in the range of 5 to 20%.
Turning to `N#Cc1c(Nc2cccc(Cl)c2)n[nH]c1/N=C/c1nc(-c2ccccc2)[nH]c1Cl` [Compound A72], the “Activity (inhibition of the RC kinase activity)” value is “B (no greater than 50% but at least 20% inhibition of the RC kinase activity at 1 μM)”.
For `NC(=O)c1c(Nc2cccc(Cl)c2)n[nH]c1/N=C/c1c(O)cccc1Cl` [Compound B103], the inhibition at 1 µM lay within 5 to 20%.
Consider `NC(=O)c1c(Nc2cccc(Cl)c2)n[nH]c1/N=C/c1ccc(Oc2ncccn2)cc1` [Compound B64, 3-((3-chlorophenyl)amino)-5-((4-(pyrimidin-2-yloxy)benzylidene)amino)-1H-pyrazole-4-carboxamide], for which the inhibition at 1 µM was ≥ 50%.
In the case of `N#Cc1c(Nc2ccc(Cl)cc2)n[nH]c1/N=C/c1ccc[nH]1` [Compound A39], the “Activity (inhibition of the RC kinase activity)” value is listed as “D (no greater than 5% inhibition of the RC kinase activity at 1 μM)”.
Regarding `COc1cc(/C=N/c2[nH]nc(Nc3cccc(Cl)c3)c2C(N)=O)cc(O)c1OC` [Compound B74], the inhibition at 1 µM was 5 to 20%.
In the case of `NC(=O)c1c(Nc2cccc(Cl)c2)n[nH]c1/N=C/c1c(F)cccc1Cl` [Compound B82], the “Activity (inhibition of the RC kinase activity)” value is “D (no greater than 5% inhibition of the RC kinase activity at 1 μM)”.
Regarding `Cn1nc(CSc2ccccc2)c(/C=N/c2[nH]nc(Nc3cccc(Cl)c3)c2C(N)=O)c1Cl` [Compound B67], the inhibition at 1 µM lay in the range of 20 to 50%.
Consider `NC(=O)c1c(Nc2cccc(Cl)c2)n[nH]c1/N=C/c1ccccc1-c1cccs1` [Compound B65], for which the inhibition at 1 µM is 20 to 50%.

Staying with this assay, now noted: compound at 1 μM, 1 µM.
For `N#Cc1c(Nc2cccc(Cl)c2)n[nH]c1/N=C/c1cnc(N)s1` [Compound B99], the “Activity (inhibition of the RC kinase activity)” value is reported as “A (at least 50% inhibition of the RC kinase activity at 1 μM)”.

The inhibition is the relative decrease from the control value, in per cent.
